From patent US9505735B2, “Compounds for treating infectious diseases” (Whitehead Institute for Biomedical Research, priority 2012, dated 2016)

Biological target: T1, Gwt1 (Saccharomyces cerevisiae, UniProt P47026)
T1 construct: Wildtype S. cerevisiae BY4741; endogenous in cells; host or cells: S. cerevisiae BY4741 (wild type)
T1 sequence (P47026 1-490): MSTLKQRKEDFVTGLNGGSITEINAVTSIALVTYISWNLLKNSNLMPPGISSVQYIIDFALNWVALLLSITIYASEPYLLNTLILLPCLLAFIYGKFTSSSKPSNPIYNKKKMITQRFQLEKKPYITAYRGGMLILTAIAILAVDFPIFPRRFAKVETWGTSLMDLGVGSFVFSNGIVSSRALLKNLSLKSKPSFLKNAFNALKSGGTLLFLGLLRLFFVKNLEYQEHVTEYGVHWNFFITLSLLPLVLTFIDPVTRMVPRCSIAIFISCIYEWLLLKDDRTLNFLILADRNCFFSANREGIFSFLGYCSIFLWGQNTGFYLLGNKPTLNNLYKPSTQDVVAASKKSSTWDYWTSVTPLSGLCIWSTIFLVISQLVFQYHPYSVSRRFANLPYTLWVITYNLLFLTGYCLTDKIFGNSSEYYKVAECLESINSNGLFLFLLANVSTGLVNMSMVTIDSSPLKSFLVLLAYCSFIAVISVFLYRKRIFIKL
Experiment: Antifungal susceptibility testing, screening strains with plasmid-borne GWT1 (low or high copy)
Type: cell-based, S. cerevisiae
Method: Sensitivity to gepinacin was determined in 96-well, flat bottom microtiter plates using a modification of the NCCLS broth microdilution protocol CLS M27-A3 and RPMI as culture medium. Fungi were inoculated at ˜10^3 cells per ml and incubated for 48 hours at 37° C. after which plates were sealed, shaken and the optical density read at 600 nm (OD600) on a Tecan Safire 2 plate reader. All samples were run in duplicate or triplicate and assays were repeated at least once. Results are expressed as fraction of growth in the absence of compound and the mean and standard deviation are plotted. For the mold A. terreus, inoculum was 10^4 cells per ml and plates were incubated at 35° C. for 48 hours in the dark. Plates were then visually scored as specified by CLSI document M38-A2 to determine the MIC50 and MIC80.
Because GWT1 deletion is lethal in S. cerevisiae strain BY4741, a haploid shuttle strain was constructed in which the genomic copy of GWT1 was deleted and replaced by GWT1 on a plasmid that also encoded the URA3 gene and a G418-resistance gene. To construct this shuttle strain a gwt1Δ/GWT1 heterozygous deletion mutant was transformed with pAGGPD416-GWT1, sporulated and dissected. A colony was selected that grew on both SD-URA and G418-containing plates. PCR with the deletion specific primers (http://wwwsequence.stanford.edu/group/yeast_deletion_project/deletions3.html) was performed to confirm the GWT1 deletion. To change the source of GWT, this shuttle strain was transformed with plasmids containing GWT1 (as a control) or PIG-W and the LEU2 auxotrophy gene followed by selection for growth on SD-LEU plates. Plasmids were constructed by conventional Gateway technology using a GWT1 encoding entry vector and either pAG415GPDccdB or pAG425GPDccdB as the destination vectors. Positive colonies were selected and grown on 5-fluoroorotic acid (5-FOA)-containing plates to promote loss of the pAGGPD416-GWT1 plasmid. The colonies from this plate were then tested for return of uridine auxotrophy to confirm pAGGPD416-GWT1 loss. The PIG-W expression vector was constructed by recombination in yeast as follows. The pAG415GPDccdB vector was cut with Xho1 and Xba1 and the larger piece was gel and column purified. The coding sequence of PIG-W was PCR amplified from the entry clone so that it would have ends facilitating recombination with the cut vector. The shuttle strain was then transformed with these two DNA fragments and plated on SD-LEU plates to select for recombinants. PIG-W plasmid was isolated from the final strain and sequence verified.
The following gepinacin analogs were tested for activity against Gwt1. Gepinacin, M3, CM2, CM4, CM6, CM7, CM8, and 857621-56-8 were available commercially. The compounds were tested using the “Antifungal Susceptibility Testing” protocol described above. Fungi tested are described in the “Fungal Strains” section above.
An S. cerevesiae strain was generated in which the endogenous Gwt1 gene was deleted. Plasmids (either high copy or low copy) with either S. cerevesiae or human Gwt1 were introduced to produce strains bearing such plasmids expressing either S. cerevesiae or human Gwt1 from a constitutive promoter. Yeast strains were cultured in liquid media in the presence of indicated compounds. Shown in FIGS. 22A-D show the effect of the indicated compounds on growth (assessed by OD600) and viability (assessed using Bactiter Glo) of the yeast strain with high copy or low copy plasmid containing S. cerevesiae Gwt1. The compounds had no effect on strains with the human Gwt1, thus showing the compounds' sensitivity for the fungal (yeast) Gwt1 gene.

For `COc1ccc(NC(=O)COc2cccc(OCC(C)C)c2)cc1` [gepinacin], which “cell growth of the strain expressing the yeast gene (GWT1)” value is on record?
The value was “potently inhibited”.
